From ChEMBL document CHEMBL1201862, “PubChem BioAssay data set” (2004)
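48-hour exposure; five concentrations; linearly interpolated endpoints. Here, GI50 denotes the concentration required for 50% inhibition of growth.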 Calls of active or inactive are those of the source. No stated cut-off is given here; in the data, active = GI50 up to about 1.1 µM and inactive = higher.

Tests used:
Experiment in all cases: DTP human tumour cell line panel, 48 h
[1] = test system: UACC-257
[2] = test system: OVCAR-4
[3] = test system: MDA-N
[4] = test system: SK-MEL-5
[5] = test system: SF-539
[6] = test system: ACHN
[7] = test system: SW-620
[8] = test system: UACC-62
[9] = test system: NCI/ADR-RES
[10] = test system: KM12
[11] = test system: OVCAR-8
[12] = test system: SN12C
[13] = test system: SK-MEL-2
[14] = test system: K562
[15] = test system: NCI-H23
[16] = test system: PC-3
[17] = test system: SNB-75
[18] = test system: NCI-H522
[19] = test system: UO-31
[20] = test system: HOP-92

Measured: GI50

CCNC(=S)N/N=C/c1cc([N+](=O)[O-])ccc1O
inactive: [1] 24.6 µM | [2] 15.6 µM | [3] 46.5 µM | [4] 10.9 µM | [5] 35.4 µM | [6] 25.8 µM | [7] 40.5 µM | [8] 17.5 µM | [9] 21.8 µM | [10] 23.8 µM | [11] 18 µM | [12] 31.5 µM | [13] > 100 µM | [14] 20.6 µM | [15] 41.6 µM | [16] 28.3 µM | [17] 52 µM | [18] 21.5 µM | [19] 22.3 µM

Nc1nc(Nc2ccc(Cl)cc2)sc1C(=O)c1cccs1
inactive: [1] > 100 µM | [2] 25.9 µM | [3] > 100 µM | [4] 38.2 µM | [5] 21.6 µM | [6] 36.3 µM | [20] 44.5 µM | [7] 59 µM | [8] > 100 µM | [9] 50.6 µM | [10] > 100 µM | [12] 21 µM | [13] 98.9 µM | [15] 29.2 µM | [16] > 100 µM | [19] 17 µM

O=c1[nH]c(=O)n(C2CC(O)C(CO)O2)cc1OCc1ccccc1 (stereo not drawn)
inactive: [1] > 100 µM | [2] > 100 µM | [3] > 100 µM | [4] > 100 µM | [6] > 100 µM | [8] > 100 µM | [9] > 100 µM | [10] > 100 µM | [11] > 100 µM | [12] > 100 µM | [14] > 100 µM | [15] > 100 µM | [16] > 100 µM | [17] > 100 µM | [18] > 100 µM | [19] > 100 µM

CN(C)CCNC(=O)Cn1cnc2cccc([N+](=O)[O-])c2c1=O
inactive: [1] > 100 µM | [2] > 100 µM | [3] > 100 µM | [4] > 100 µM | [5] > 100 µM | [6] > 100 µM | [7] > 100 µM | [8] > 100 µM | [9] > 100 µM | [10] > 100 µM | [12] > 100 µM | [13] > 100 µM | [14] > 100 µM | [15] > 100 µM | [16] > 100 µM | [18] > 100 µM | [19] > 100 µM

CC1CCC/C1=C(/I)C(=O)c1ccccc1 (stereo not drawn)
inactive: [1] 89.9 µM | [2] 85.7 µM | [3] 36.6 µM | [4] 26.2 µM | [5] > 100 µM | [6] > 100 µM | [7] 53.1 µM | [8] 86.7 µM | [9] 76.7 µM | [10] 25.4 µM | [11] > 100 µM | [12] > 100 µM | [13] > 100 µM | [14] 34.4 µM | [15] 74.5 µM | [16] > 100 µM | [17] 16.1 µM | [18] 41.7 µM | [19] > 100 µM

CC1(C)CC(=O)c2c(nc3c(ccc4ccccc43)c2-c2ccc(NC(=O)CCCCC(=O)Nc3ccc(-c4c5c(nc6c4ccc4ccccc46)CC(C)(C)CC5=O)cc3)cc2)C1
inactive: [1] 39.2 µM | [3] 26.4 µM | [4] 32.1 µM | [5] 20.6 µM | [6] 24 µM | [7] 38.6 µM | [9] 23.8 µM | [10] 20.7 µM | [11] 26.1 µM | [12] 33.1 µM | [13] 33 µM | [14] 30.8 µM | [16] 27.4 µM | [17] 16.3 µM | [18] 29.5 µM | [19] 19.5 µM

Cn1c2ccccc2n2c3ncccc3/c(=N/CCCC(=O)O)c(C#N)c12
inactive: [2] > 100 µM | [3] > 100 µM | [4] > 100 µM | [6] > 100 µM | [7] > 100 µM | [8] > 100 µM | [9] > 100 µM | [10] > 100 µM | [11] > 100 µM | [12] > 100 µM | [13] > 100 µM | [14] > 100 µM | [15] > 100 µM | [16] > 100 µM | [17] > 100 µM | [18] > 100 µM | [19] > 100 µM

O=C(CCCn1ccnc1[N+](=O)[O-])NCCn1ccnc1
inactive: [1] > 100 µM | [3] > 10 µM | [4] > 100 µM | [5] > 100 µM | [6] > 100 µM | [7] > 100 µM | [8] > 100 µM | [9] > 100 µM | [10] > 100 µM | [11] > 100 µM | [12] > 100 µM | [13] > 100 µM | [14] > 100 µM | [15] > 100 µM | [16] > 100 µM | [17] > 100 µM | [18] > 100 µM | [19] > 100 µM
